Results reported in ChEMBL document CHEMBL1133916, “The discovery of anthranilic acid-based MMP inhibitors. Part 2: SAR of the 5-position and P1(1) groups” (Bioorg Med Chem Lett, 2001).

species on record: Bos taurus; test: Percent inhibition of cartilage degradation at 1 uM in a bovine articular cartilage explant assay; format: functional; details: Cartilage tissue

Row | SMILES | inhibition at 1 µM
1 | Cc1cccc(C(=O)NO)c1N(C)S(=O)(=O)c1ccc(Oc2ccncc2)cc1 | 83%
2 | COc1ccc(S(=O)(=O)N(Cc2cccnc2)c2c(C)cc(-c3ccc4ccccc4c3)cc2C(=O)NO)cc1 | 83%
3 | COc1ccc(S(=O)(=O)N(Cc2cccnc2)[C@@H](C(=O)NO)C(C)C)cc1 [CGS-27023A] | 70%
4 | COc1ccc(S(=O)(=O)N(Cc2cccnc2)c2c(C)cc(-c3ccccc3)cc2C(=O)NO)cc1 | 70%

biological target: T1, Matrix metalloproteinase-9 (Homo sapiens, UniProt P14780); test: In vitro ability to inhibit matrix metalloprotease-9.; details: not given
T1 sequence (P14780 whole entry): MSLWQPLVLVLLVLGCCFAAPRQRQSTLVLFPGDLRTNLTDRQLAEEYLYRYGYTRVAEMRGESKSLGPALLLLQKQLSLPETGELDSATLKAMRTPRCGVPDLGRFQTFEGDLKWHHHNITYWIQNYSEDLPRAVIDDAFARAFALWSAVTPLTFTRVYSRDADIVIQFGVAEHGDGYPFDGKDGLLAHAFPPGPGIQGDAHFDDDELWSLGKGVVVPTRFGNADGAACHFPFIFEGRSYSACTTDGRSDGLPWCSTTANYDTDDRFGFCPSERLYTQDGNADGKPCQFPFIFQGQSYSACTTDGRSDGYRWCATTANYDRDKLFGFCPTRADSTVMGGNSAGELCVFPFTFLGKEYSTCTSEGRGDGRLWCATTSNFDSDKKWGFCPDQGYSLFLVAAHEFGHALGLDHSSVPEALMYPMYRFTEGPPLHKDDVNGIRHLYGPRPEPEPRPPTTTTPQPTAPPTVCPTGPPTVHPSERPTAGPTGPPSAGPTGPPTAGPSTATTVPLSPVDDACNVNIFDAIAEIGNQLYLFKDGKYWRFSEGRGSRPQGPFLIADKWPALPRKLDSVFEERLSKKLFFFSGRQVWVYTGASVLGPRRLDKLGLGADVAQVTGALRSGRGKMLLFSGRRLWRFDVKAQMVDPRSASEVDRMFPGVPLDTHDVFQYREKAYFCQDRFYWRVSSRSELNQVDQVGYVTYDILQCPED

Row | SMILES | IC50
5 | Cc1cc(Br)cc(C(=O)NO)c1N(Cc1ccccc1)S(=O)(=O)c1ccc(OCc2ccccc2)cc1 | 3450 nM
6 | Cc1cc(C)c(N(Cc2ccccc2)S(=O)(=O)c2ccc(Oc3ccccc3)cc2)c(C(=O)NO)c1 | 4 nM
7 | COc1ccc(S(=O)(=O)N(Cc2cccnc2)c2c(C(=O)NO)cc(C)cc2-c2ccccc2)cc1 | 7 nM
8 | COc1ccc(-c2ccc(S(=O)(=O)N(Cc3cccnc3)c3c(C)cccc3C(=O)NO)cc2)cc1 | 152 nM
9 | Cc1cccc(C(=O)NO)c1N(C)S(=O)(=O)c1ccc(Oc2ccncc2)cc1 | 7 nM
10 | COc1ccc(S(=O)(=O)N(Cc2cccnc2)c2c(C(=O)NO)cc(C)cc2-c2ccco2)cc1 | 8 nM
11 | COc1ccc(S(=O)(=O)N(Cc2cccnc2)c2c(C)cc(-c3ccc4ccccc4c3)cc2C(=O)NO)cc1 | 2 nM
12 | COc1ccc(S(=O)(=O)N(Cc2cccnc2)c2c(C)cc(N(C)C)cc2C(=O)NO)cc1 | 2 nM
13 | COc1ccc(S(=O)(=O)N(Cc2cccnc2)c2c(C)cc(-c3cccc(C(F)(F)F)c3)cc2C(=O)NO)cc1 | 1 nM
14 | CN(c1ccccc1C(=O)NO)S(=O)(=O)c1ccc(Oc2ccncc2)cc1 | 153 nM
15 | Cc1cc(C)c(N(C)S(=O)(=O)c2ccc(Sc3ccccc3)cc2)c(C(=O)NO)c1 | 8 nM
16 | Cc1cc(Br)cc(C(=O)NO)c1N(C)S(=O)(=O)c1ccc(-c2ccc(OCc3nccs3)cc2)cc1 | 952 nM
17 | Cc1cc(Br)cc(C(=O)NO)c1N(C)S(=O)(=O)c1ccc(Oc2ccc(C(C)(C)C)cc2)cc1 | 125 nM
18 | Cc1cc(Br)cc(C(=O)NO)c1N(C)S(=O)(=O)c1ccc(-c2ccc(OCc3ccsc3)cc2)cc1 | 232 nM
19 | Cc1cc(Br)cc(C(=O)NO)c1N(C)S(=O)(=O)c1ccc(-c2ccc(OCc3ccccc3)cc2)cc1 | 189 nM

biological target: T1, Matrix metalloproteinase-9; test: Inhibition of Matrix metalloprotease-9 at 1 uM; details: not given

Row | SMILES | inhibition
20 | Cc1cc(Br)cc(C(=O)NO)c1N(C)S(=O)(=O)c1ccc(-c2ccc(OCc3cccnc3)cc2)cc1 | 28%
21 | Cc1cccc(C(=O)NO)c1N(Cc1cccnc1)S(=O)(=O)c1ccc(-c2ccc3c(c2)OCO3)cc1 | 43%

biological target: T2, Interstitial collagenase (Homo sapiens, UniProt P03956); test: In vitro inhibition of Matrix metalloprotease-1; details: not given
T2 sequence (P03956 whole entry): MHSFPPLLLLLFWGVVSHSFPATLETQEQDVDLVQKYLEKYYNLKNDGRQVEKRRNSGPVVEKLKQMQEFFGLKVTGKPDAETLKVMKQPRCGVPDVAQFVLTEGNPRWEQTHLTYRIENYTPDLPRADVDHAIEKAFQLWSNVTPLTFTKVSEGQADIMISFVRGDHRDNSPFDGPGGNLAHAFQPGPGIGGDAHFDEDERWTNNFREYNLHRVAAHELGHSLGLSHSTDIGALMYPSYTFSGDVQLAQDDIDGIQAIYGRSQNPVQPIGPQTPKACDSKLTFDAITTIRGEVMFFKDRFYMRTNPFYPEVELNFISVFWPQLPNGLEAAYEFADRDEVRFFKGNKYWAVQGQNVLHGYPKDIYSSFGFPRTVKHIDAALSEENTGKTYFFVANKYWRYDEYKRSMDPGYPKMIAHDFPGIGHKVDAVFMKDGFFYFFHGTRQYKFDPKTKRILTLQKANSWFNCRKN

Row | SMILES | IC50
22 | Cc1cc(C)c(N(Cc2ccccc2)S(=O)(=O)c2ccc(Oc3ccccc3)cc2)c(C(=O)NO)c1 | 376 nM
23 | COc1ccc(S(=O)(=O)N(Cc2cccnc2)c2c(C(=O)NO)cc(C)cc2-c2ccccc2)cc1 | 103 nM
24 | COc1ccc(-c2ccc(S(=O)(=O)N(Cc3cccnc3)c3c(C)cccc3C(=O)NO)cc2)cc1 | 2270 nM
25 | COc1ccc(S(=O)(=O)N(Cc2cccnc2)c2c(C)cc(Br)cc2C(=O)NO)cc1 | 124 nM
26 | COc1ccc(S(=O)(=O)N(Cc2cccnc2)c2c(C(=O)NO)cc(C)cc2-c2ccco2)cc1 | 18 nM
27 | COc1ccc(S(=O)(=O)N(Cc2cccnc2)c2c(C)cc(-c3ccc4ccccc4c3)cc2C(=O)NO)cc1 | 745 nM
28 | COc1ccc(S(=O)(=O)N(Cc2cccnc2)c2c(C)cc(N(C)C)cc2C(=O)NO)cc1 | 74 nM
29 | Cc1cc(C)c(N(C)S(=O)(=O)c2ccc(Sc3ccccc3)cc2)c(C(=O)NO)c1 | 1310 nM
30 | Cc1cc(Br)cc(C(=O)NO)c1N(C)S(=O)(=O)c1ccc(-c2ccc(OCc3ccsc3)cc2)cc1 | 4640 nM

biological target: T3, Interstitial collagenase (Homo sapiens) (UniProt P03956); test: Inhibition of Matrix metalloprotease-1 at 10 uM; details: not given
T3 sequence (whole entry): T2 sequence (P03956 whole entry)

Row | SMILES | inhibition
31 | Cc1cc(Br)cc(C(=O)NO)c1N(Cc1ccccc1)S(=O)(=O)c1ccc(OCc2ccccc2)cc1 | 18%
32 | Cc1cc(Br)cc(C(=O)NO)c1N(C)S(=O)(=O)c1ccc(-c2ccc(OCc3cccnc3)cc2)cc1 | 42%
33 | Cc1cccc(C(=O)NO)c1N(Cc1cccnc1)S(=O)(=O)c1ccc(-c2ccc3c(c2)OCO3)cc1 | 37%
34 | Cc1cc(Br)cc(C(=O)NO)c1N(C)S(=O)(=O)c1ccc(-c2ccc(OCc3nccs3)cc2)cc1 | 45%
35 | Cc1cc(Br)cc(C(=O)NO)c1N(C)S(=O)(=O)c1ccc(-c2ccc(OCc3ccccc3)cc2)cc1 | 57%

biological target: T3, Interstitial collagenase (Homo sapiens); test: Inhibition of Matrix metalloprotease-1 at 1 uM; details: not given

Row | SMILES | inhibition
36 | Cc1cc(C)c(N(Cc2ccccc2)S(=O)(=O)c2ccc(OCc3ccccc3)cc2)c(C(=O)NO)c1 | 25%
37 | CN(c1ccccc1C(=O)NO)S(=O)(=O)c1ccc(Oc2ccncc2)cc1 | 48%
38 | Cc1cc(Br)cc(C(=O)NO)c1N(C)S(=O)(=O)c1ccc(Oc2ccc(C(C)(C)C)cc2)cc1 | 25%
39 | CCCCOc1ccc(S(=O)(=O)N(Cc2ccccc2)c2c(C)cc(C)cc2C(=O)NO)cc1 | 33%

biological target: T4, Collagenase 3 (Homo sapiens, UniProt P45452); test: Inhibition of matrix metalloprotease-13; details: concentration not given here

Row | SMILES | inhibition
40 | Cc1cc(Br)cc(C(=O)NO)c1N(C)S(=O)(=O)c1ccc(-c2ccc(OCc3cccnc3)cc2)cc1 | 48%

tested on: Rattus norvegicus; test: Percent inhibition of collagen degradation at an oral dose of 50 mg/kg/bid in an in vivo rat sponge-wrapped cartilage model; format: functional; details: not given

Row | SMILES | inhibition in vivo at 50 mg/kg
41 | Cc1cccc(C(=O)NO)c1N(C)S(=O)(=O)c1ccc(Oc2ccncc2)cc1 | 35%
42 | COc1ccc(S(=O)(=O)N(Cc2cccnc2)[C@@H](C(=O)NO)C(C)C)cc1 [CGS-27023A] | 51%

biological target: T5, Disintegrin and metalloproteinase domain-containing protein 17 (Homo sapiens, UniProt P78536); test: In vitro inhibition of TNF-alpha converting enzyme (TACE); details: not given
T5 sequence (P78536 whole entry, the tested form may be a part): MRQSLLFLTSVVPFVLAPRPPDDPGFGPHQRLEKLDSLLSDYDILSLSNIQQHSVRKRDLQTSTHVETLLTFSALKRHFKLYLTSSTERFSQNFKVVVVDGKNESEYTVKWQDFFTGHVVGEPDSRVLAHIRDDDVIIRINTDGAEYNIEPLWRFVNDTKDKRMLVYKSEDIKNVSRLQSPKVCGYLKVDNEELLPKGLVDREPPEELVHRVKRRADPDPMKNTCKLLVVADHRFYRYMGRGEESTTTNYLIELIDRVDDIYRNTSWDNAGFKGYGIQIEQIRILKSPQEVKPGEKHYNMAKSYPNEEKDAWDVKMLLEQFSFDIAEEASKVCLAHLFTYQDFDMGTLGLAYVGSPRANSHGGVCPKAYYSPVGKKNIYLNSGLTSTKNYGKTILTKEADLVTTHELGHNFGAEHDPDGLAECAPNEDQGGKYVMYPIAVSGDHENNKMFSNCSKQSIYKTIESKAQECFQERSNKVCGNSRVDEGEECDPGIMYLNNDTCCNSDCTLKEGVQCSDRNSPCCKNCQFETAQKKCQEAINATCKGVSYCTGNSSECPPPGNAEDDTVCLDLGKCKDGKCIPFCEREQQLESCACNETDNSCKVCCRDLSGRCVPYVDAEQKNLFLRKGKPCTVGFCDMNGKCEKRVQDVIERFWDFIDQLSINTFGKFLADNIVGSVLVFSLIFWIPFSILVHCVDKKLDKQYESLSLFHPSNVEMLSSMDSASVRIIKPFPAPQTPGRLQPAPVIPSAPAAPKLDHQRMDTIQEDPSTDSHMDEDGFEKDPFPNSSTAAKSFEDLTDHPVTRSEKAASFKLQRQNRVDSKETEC

Row | SMILES | IC50
43 | COc1ccc(S(=O)(=O)N(Cc2cccnc2)c2c(C)cccc2C(=O)NO)cc1 | 231 nM
44 | Cc1cc(Br)cc(C(=O)NO)c1N(Cc1ccccc1)S(=O)(=O)c1ccc(OCc2ccccc2)cc1 | 285 nM
45 | COc1ccc(S(=O)(=O)N(Cc2cccnc2)c2c(C(=O)NO)cc(C)cc2-c2ccccc2)cc1 | 133 nM
46 | COc1ccc(S(=O)(=O)N(Cc2cccnc2)c2c(C)cc(Br)cc2C(=O)NO)cc1 | 43 nM
47 | Cc1cc(Br)cc(C(=O)NO)c1N(C)S(=O)(=O)c1ccc(-c2ccc(OCc3cccnc3)cc2)cc1 | 28 nM
48 | COc1ccc(S(=O)(=O)N(Cc2cccnc2)c2c(C)cc(-c3ccc4ccccc4c3)cc2C(=O)NO)cc1 | 194 nM
49 | COc1ccc(S(=O)(=O)N(Cc2cccnc2)c2c(C)cc(N(C)C)cc2C(=O)NO)cc1 | 633 nM
50 | COc1ccc(S(=O)(=O)N(Cc2cccnc2)c2c(C)cc(C)cc2C(=O)NO)cc1 | 70 nM
51 | Cc1cc(C)c(N(C)S(=O)(=O)c2ccc(Sc3ccccc3)cc2)c(C(=O)NO)c1 | 727 nM
52 | Cc1cc(Br)cc(C(=O)NO)c1N(C)S(=O)(=O)c1ccc(-c2ccc(OCc3nccs3)cc2)cc1 | 23 nM
53 | Cc1cc(Br)cc(C(=O)NO)c1N(C)S(=O)(=O)c1ccc(-c2ccc(OCc3ccsc3)cc2)cc1 | 56 nM
54 | COc1ccc(S(=O)(=O)N(Cc2cccnc2)[C@@H](C(=O)NO)C(C)C)cc1 [CGS-27023A] | 231 nM
55 | Cc1cc(Br)cc(C(=O)NO)c1N(C)S(=O)(=O)c1ccc(-c2ccc(OCc3ccccc3)cc2)cc1 | 57 nM

biological target: T5, Disintegrin and metalloproteinase domain-containing protein 17; test: Inhibition of TNF-alpha converting enzyme (TACE) at 1 uM; details: not given

Row | SMILES | inhibition
56 | Cc1cc(C)c(N(Cc2ccccc2)S(=O)(=O)c2ccc(Oc3ccccc3)cc2)c(C(=O)NO)c1 | 37%
57 | COc1ccc(-c2ccc(S(=O)(=O)N(Cc3cccnc3)c3c(C)cccc3C(=O)NO)cc2)cc1 | 4%
58 | CCN(CC)Cc1cc(C)c(N(Cc2ccccc2)S(=O)(=O)c2ccc(OC)cc2)c(C(=O)NO)c1 | 44%
59 | Cc1cccc(C(=O)NO)c1N(C)S(=O)(=O)c1ccc(Oc2ccncc2)cc1 | 32%
60 | CN(c1ccccc1C(=O)NO)S(=O)(=O)c1ccc(Oc2ccncc2)cc1 | 22%
61 | Cc1cccc(C(=O)NO)c1N(Cc1cccnc1)S(=O)(=O)c1ccc(-c2ccc3c(c2)OCO3)cc1 | 9%
62 | Cc1cc(Br)cc(C(=O)NO)c1N(C)S(=O)(=O)c1ccc(Oc2ccc(C(C)(C)C)cc2)cc1 | 19%

biological target: T4, Collagenase 3; details: not given

Row | SMILES | IC50
63 | Cc1cc(C)c(N(Cc2ccccc2)S(=O)(=O)c2ccc(Oc3ccccc3)cc2)c(C(=O)NO)c1 | 6 nM
64 | COc1ccc(S(=O)(=O)N(Cc2cccnc2)c2c(C(=O)NO)cc(C)cc2-c2ccccc2)cc1 | 3 nM
65 | COc1ccc(-c2ccc(S(=O)(=O)N(Cc3cccnc3)c3c(C)cccc3C(=O)NO)cc2)cc1 | 18 nM
66 | COc1ccc(S(=O)(=O)N(Cc2cccnc2)c2c(C(=O)NO)cc(C)cc2-c2ccco2)cc1 | 1 nM
67 | COc1ccc(S(=O)(=O)N(Cc2cccnc2)c2c(C)cc(-c3ccc4ccccc4c3)cc2C(=O)NO)cc1 | 1 nM
68 | COc1ccc(S(=O)(=O)N(Cc2cccnc2)c2c(C)cc(N(C)C)cc2C(=O)NO)cc1 | 39 nM
69 | CN(c1ccccc1C(=O)NO)S(=O)(=O)c1ccc(Oc2ccncc2)cc1 | 38 nM
70 | Cc1cc(C)c(N(C)S(=O)(=O)c2ccc(Sc3ccccc3)cc2)c(C(=O)NO)c1 | 3 nM
71 | Cc1cc(Br)cc(C(=O)NO)c1N(C)S(=O)(=O)c1ccc(-c2ccc(OCc3nccs3)cc2)cc1 | 661 nM
72 | Cc1cc(Br)cc(C(=O)NO)c1N(C)S(=O)(=O)c1ccc(Oc2ccc(C(C)(C)C)cc2)cc1 | 44 nM
73 | Cc1cc(Br)cc(C(=O)NO)c1N(C)S(=O)(=O)c1ccc(-c2ccc(OCc3ccsc3)cc2)cc1 | 142 nM
74 | COc1ccc(S(=O)(=O)N(Cc2cccnc2)c2c(C)cc(-c3ccccc3)cc2C(=O)NO)cc1 | 4 nM
75 | Cc1cc(Br)cc(C(=O)NO)c1N(C)S(=O)(=O)c1ccc(-c2ccc(OCc3ccccc3)cc2)cc1 | 163 nM
